Values of other authors as cited in US6150391A, “Diazabicyclo-octane derivatives as 5-HT receptor ligands” (Merck Sharp & Dohme Ltd., priority 1996, dated 2000).

Assays:
[1] = therapeutic doses
[2] = tested on: human 5-HT1D.sbsb.α and 5-HT1D.sbsb.β receptor subtypes; conditions: cf WO-A-91/17174, Table 1

Structure (SMILES): CNS(=O)(=O)Cc1ccc2[nH]cc(CCN(C)C)c2c1 [sumatriptan]
- adverse events on administration to humans [1]: certain adverse cardiovascular events
- discrimination between the human 5-HT1D.sbsb.α and 5-HT1D.sbsb.β receptor subtypes [2]: barely discriminates
